Assay results taken from ChEMBL document CHEMBL5512671, “Structure-Based Optimization of Novel Sterol 24-C-Methyltransferase Inhibitors for the Treatment of Candida albicans Infections” (J Med Chem, 2024).
Calls of active or inactive are those of the source. No cut-off for these calls is given here.

Columns and labels:
[1] = Cytotoxicity against human HUVEC cells incubated for 48 hrs by CCK-8 method; type: toxicity, cell-based
Candida albicans [2] = experiment: Inhibition of cell adhesion in Candida albicans SC5314 to human HGE cells measured after 90 mins by fluorescence microscopy based analysis; type: functional; details: dose 0.5-2 µg/ml
[Candida] auris = Antifungal activity against Candida auris CBS12774 assessed as effect on cell structure at 1 ug/ml measured after 6 hrs by microscopy based analysis; type: functional, organism-based; details: Candidozyma auris, dose 1.0 µg/ml
Candida albicans [3] = experiment: Antifungal activity against Candida albicans SC5314 infected in Balb/C mouse candidiasis model assessed as decrease in skin fungal burden by measuring fold change at 0.5% administered topically and measured after 72 hrs; type: functional
Candida albicans [4] = experiment: Antifungal activity against Candida albicans SC5314 infected in Balb/C mouse candidiasis model assessed as appearance of inflammatory infiltrates at 0.5 % administered topically and measured after 72 hrs in presence of terbinafine by H and E staining based analysis; type: functional, organism-based
Candida albicans [5] = experiment: Antifungal activity against Candida albicans CAI4/pBA1-ERG6 assessed as inhibition of hyphae growth incubated for 24 hrs by CLSI protocol based broth microdilution method; type: functional, organism-based
Candida albicans [6] = experiment: Upregulation of NRG1 expression in Candida albicans SC5314 at 1 ug/ml incubated for 6 hrs by qPCR analysis; type: functional; details: dose 1.0 µg/ml
Nakaseomyces glabratus = experiment: Antifungal activity against Candida glabrata CG2 assessed as inhibition of fungal growth incubated for 24 hrs by CLSI protocol based broth microdilution method; type: functional
Candida albicans [7] = experiment: Antifungal activity against Candida albicans SC5314 assessed as inhibition of fungal growth incubated for 24 hrs by CLSI protocol based broth microdilution method; type: functional
Candida albicans [8] = experiment: Antifungal activity against Candida albicans SC5314 infected in Balb/C mouse candidiasis model assessed as decrease in skin fungal burden by measuring fold change at 0.5 % administered topically and measured after 72 hrs in presence of terbinafine; type: functional
Candida albicans [9] = experiment: Antifungal activity against Candida albicans SC5314 assessed as inhibition of hyphae growth measured after 5 days cultured under YPD embedded agar medium and 10mM GlcNAc by microscopy based analysis; type: functional, organism-based; details: dose 0.25-1 µg/ml, time 5.0 day
Candida albicans [10] = experiment: Antibiofilm activity against Candida albicans CA14-TDH3-GFP at 0.5 to 2 ug/ml incubated for 24 hrs by XTT reduction assay; type: functional, organism-based; details: dose 0.5-2 µg/ml
Candida albicans [11] = experiment: Downregulation of UME6 expression in Candida albicans SC5314 at 1 ug/ml incubated for 6 hrs by qPCR analysis; type: functional; details: dose 1.0 µg/ml
[12] = Cytotoxicity against human BEAS-2B cells incubated for 48 hrs by CCK-8 method; type: toxicity, cell-based
[13] = biological target: T1, Sterol 24-C-methyltransferase (Candida albicans (strain SC5314 / ATCC MYA-2876) (Yeast), UniProt O74198); experiment: Inhibition of recombinant Candida albicans SC5314 Erg6 methyltransferase activity using zymosterol as substrate incubated for 15 mins followed by substrate addition by liquid scintillation counter analysis
T1 sequence (O74198 whole entry): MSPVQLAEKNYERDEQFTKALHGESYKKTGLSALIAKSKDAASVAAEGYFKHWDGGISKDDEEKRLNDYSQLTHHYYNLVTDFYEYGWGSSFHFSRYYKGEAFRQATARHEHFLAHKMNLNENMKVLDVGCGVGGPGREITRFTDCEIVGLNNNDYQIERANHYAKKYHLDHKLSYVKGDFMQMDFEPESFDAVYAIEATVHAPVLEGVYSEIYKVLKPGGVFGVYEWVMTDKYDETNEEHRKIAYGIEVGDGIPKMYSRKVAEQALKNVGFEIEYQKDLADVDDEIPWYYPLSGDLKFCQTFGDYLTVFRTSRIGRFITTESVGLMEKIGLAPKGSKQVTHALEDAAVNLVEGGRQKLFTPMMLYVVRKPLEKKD

Candida albicans [14] = experiment: Antifungal activity against Candida albicans SC5314 assessed as inhibition of morphological transition at 0.5 ug/ml measured after 5 days cultured under solid spider agar medium by microscopy based analysis relative to control; type: functional; parameters: scale not given: the % may be the effect or the level left; details: dose 0.5 µg/ml; time 5 day
Candida albicans [15] = experiment: Synergistic antifungal activity against Candida albicans SC5314 assessed as inhibition of fungal growth incubated for 24 hrs in presence of tridemorph by broth microdilution checkerboard assay; type: functional
[16] = biological target: T2, Sterol 24-C-methyltransferase (Candida albicans (strain SC5314 / ATCC MYA-2876) (Yeast)) (UniProt O74198); experiment: Thermal stabilization of recombinant Candida albicans SC5314 Erg6 transfected in Escherichia coli BL21 (DE3) at 0.5 ug/ml incubated for 30 mins at 43 to 57 degreeC by Western blot analysis; details: dose 0.5 µg/ml
T2 sequence (whole entry): T1 sequence (O74198 whole entry)

Candida albicans [17] = experiment: Antifungal activity against Candida albicans SC5314 infected in Balb/C mouse candidiasis model assessed as appearance of inflammatory infiltrates at 0.5 % administered topically and measured after 72 hrs by H and E staining based analysis; type: functional, organism-based
[18] = Hemolytic activity in mouse RBC assessed as hemolysis at 2 to 32 ug/ml incubated for 60 mins by absorbance based analysis relative to control; type: toxicity, cell-based, Erythrocyte; details: mouse red blood cells, at 2 to 32 µg/mL, dose 2-32 µg/ml, read-out: Activity

## Cc1c(-n2c(-c3ccc4ccccc4c3)cs/c2=N\c2ccccc2)c(=O)n(-c2ccccc2)n1C
[1]
  EC50 at 48 h: > 50 µg/mL
Candida albicans [2]
  inhibition: Dose-Dependent Effect
[Candida] auris
  Activity: inactive
Candida albicans [3]
  fold change (FC): 2.86
Candida albicans [4]
  Activity: inactive
Candida albicans [5]
  Activity: Active
Candida albicans [6]
  Activity: Active
Nakaseomyces glabratus
  MIC: > 128 µg/mL
Candida albicans [7]
  MIC80: > 128 µg/mL
Candida albicans [8]
  fold change (FC): 59.11
Candida albicans [9]
  Activity: Dose-Dependent Effect
Candida albicans [10]
  Activity: Active
Candida albicans [11]
  Activity: Active
[12]
  EC50 at 48 h: > 50 µg/mL
[13]
  IC50: 273 nM
Candida albicans [14]
  Activity: 100%
Candida albicans [15]
  MIC80: 1 µg/mL
[16]
  Activity: Active
Candida albicans [17]
  Activity: Active
[18]
  hemolysis at 1 h: < 1%
